Measurements published in patent US6737383B1, “Herbicidal oxadiazolidines” (priority 1999, dated 2004).

How the values were obtained:
bedstraw = experiment: Test B pre/postemergence bedstraw; format: in vivo, Galium aparine; settings: for Plant response rating, Bedstraw: Postemergence
Method in brief: (§1)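 Test chemicals in a non-phytotoxic solvent mixture with surfactant were sprayed preemergence onto planted seeds and postemergence onto plants 2 to 18 cm tall (1- to 4-leaf stage). After twelve to sixteen days in a greenhouse, injury was visually rated against untreated controls from 0 (no effect) to 10 (complete control).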

wild oat = experiment: Test B pre/postemergence wild oat; format: in vivo, Avena fatua
Method in brief: as §1

bamyardgrass = experiment: Test B flood test barnyardgrass; format: in vivo, Echinochloa crus-galli
Method in brief: (§2)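 Read-out is a visual response score from 0 (no effect) to 10 (complete control), assigned by comparison with untreated controls. Treatment was applied at the 2-leaf stage, and plants stayed in the greenhouse for twelve to sixteen days before scoring.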

morningglory = experiment: Test B pre/postemergence morningglory; format: in vivo, Ipomoea hederacea
Method in brief: as §1

pigweed = experiment: Test B pre/postemergence pigweed; format: in vivo, Amaranthus retroflexus
Method in brief: as §1

smallflower flatsedge = experiment: Test B flood test smallflower flatsedge; format: in vivo, Cyperus difformis
Method in brief: as §2

wheat = experiment: Test B pre/postemergence wheat; format: in vivo, Triticum aestivum
Method in brief: as §1

purple nutsedge = experiment: Test B pre/postemergence purple nutsedge; format: in vivo, Cyperus rotundus
Method in brief: as §1

rice = experiment: Test B flood test rice; format: in vivo, Oryza sativa
Method in brief: as §2

rape = experiment: Test B pre/postemergence rape; format: in vivo, Brassica napus
Method in brief: as §1

velvetleaf = experiment: Test B pre/postemergence velvetleaf; format: in vivo, Abutilon theophrasti
Method in brief: as §1

cocklebur = experiment: Test B pre/postemergence cocklebur; format: in vivo, Xanthium strumarium
Method in brief: as §1

duck salad = experiment: Test B flood test duck salad; format: in vivo, Heteranthera limosa
Method in brief: as §2

blackgrass = experiment: Test B pre/postemergence blackgrass; format: in vivo, Alopecurus myosuroides
Method in brief: as §1

corn = experiment: Test B pre/postemergence corn; format: in vivo, Zea mays
Method in brief: as §1

surinam grass = experiment: Test B pre/postemergence surinam grass; format: in vivo, Brachiaria decumbens
Method in brief: as §1

[1] = Preemergence, Rate 62 g/ha, scale 0 to 10 (0 no effect, 10 complete control)
[2] = Preemergence, Rate 125 g/ha, scale of 0 to 10 where 0 is no effect and 10 is complete control
[3] = Postemergence, Rate 62 g/ha, scale 0 to 10, 0 is no effect, 10 is complete control
[4] = Postemergence, Rate 125 g/ha, scale of 0 to 10 where 0 is no effect and 10 is complete control
[5] = Postemergence, Rate 250 g/ha, scale of 0 to 10, 0 is no effect, 10 is complete control
[6] = Postemergence, Rate 500 g/ha, scale of 0 to 10 where 0 is no effect and 10 is complete control
[7] = Preemergence, Rate 500 g/ha, scale of 0 to 10 where 0 is no effect and 10 is complete control
[8] = Rate 62 g/ha, flood test species, Pre-emergence, visual evaluation after twelve to sixteen days
[9] = Rate 125 g/ha, under heading Pre-emergence, flood test species, visual evaluation after twelve to sixteen days
[10] = Rate 250 g/ha, Pre-emergence (flood test species), scale 0 to 10, 0 is no effect, 10 is complete control
[11] = Rate 500 g/ha, Pre-emergence section of Table B, 0 to 10 scale (0 no effect, 10 complete control)

`C#CC(C)n1c(=O)on(C(=O)N(c2ccccc2)C(C)C)c1=O` (centres unmarked) [Compound 609] was tested, and the “Plant response rating, Bedstraw” value (bedstraw; Rate 62 g/ha, scale 0 to 10, 0 is no effect, 10 is complete control) was 0, the “Plant response rating, Bedstraw” value (bedstraw; Rate 125 g/ha, scale of 0 to 10 where 0 is no effect and 10 is complete control) was 0 and the “Bedstraw plant response rating” value (bedstraw; [1]) was 4. The “Bedstraw plant response rating” value (bedstraw; [2]) was 8, the “Bedstraw plant response rating (0 to 10 scale)” value (bedstraw; Preemergence, Rate 250 g/ha) was 8 and the “Plant response rating, Wild oats” value (wild oat; [3]) was 0. The “Plant response rating, Wild oats” value (wild oat; [4]) was 0, the “Wild oats plant response rating” value (wild oat; [5]) was 0 and the “Plant response rating, Wild oats” value (wild oat; [6]) was 4. For the same compound, the “Wild oats plant response rating” value (wild oat; [1]) was 3, the “Wild oats plant response rating” value (wild oat; [2]) was 7 and the “Plant response rating, Wild oats” value (wild oat; [7]) was 10. For the same compound, the “Plant response rating, Barnyardgrass (0 to 10 scale, 0 is no effect, 10 is complete control)” value (bamyardgrass; [8]) was 0, the “Barnyardgrass plant response rating (0 to 10 scale, 0 is no effect, 10 is complete control)” value (bamyardgrass; [9]) was 0 and the “Barnyardgrass plant response rating” value (bamyardgrass; [10]) was 0. For the same compound, the “Barnyardgrass plant response rating” value (bamyardgrass; [11]) was 0, the “Plant response rating, Morningglory” value (morningglory; [3]) was 8 and the “Plant response rating, Morningglory” value (morningglory; [4]) was 10. For the same compound, the “Morningglory plant response rating” value (morningglory; [5]) was 10, the “Plant response rating, Morningglory” value (morningglory; [6]) was 10 and the “Morningglory plant response rating” value (morningglory; [1]) was 0. For the same compound, the “Morningglory plant response rating” value (morningglory; [2]) was 0, the “Plant response rating, Morningglory” value (morningglory; [7]) was 5 and the “Plant response rating, Redroot pigweed” value (pigweed; [3]) was 0. The “Plant response rating, Redroot pigweed” value (pigweed; [4]) was 0, the “Redroot pigweed plant response rating” value (pigweed; [5]) was 2 and the “Plant response rating, Redroot pigweed” value (pigweed; [6]) was 9. The “Redroot pigweed plant response rating” value (pigweed; [1]) was 8, the “Plant response rating, Redroot pigweed” value (pigweed; [7]) was 10 and the “Plant response rating, S. Flatsedge (0 to 10 scale, 0 is no effect, 10 is complete control)” value (smallflower flatsedge; [8]) was 0. The “S. Flatsedge plant response rating (0 to 10 scale, 0 is no effect, 10 is complete control)” value (smallflower flatsedge; [9]) was 0, the “S. Flatsedge plant response rating” value (smallflower flatsedge; [10]) was 0 and the “S. Flatsedge plant response rating” value (smallflower flatsedge; [11]) was 0. For the same compound, the “Plant response rating, Wheat” value (wheat; [3]) was 0, the “Plant response rating, Wheat” value (wheat; [4]) was 0 and the “Wheat plant response rating” value (wheat; [5]) was 2. The “Plant response rating, Wheat” value (wheat; [6]) was 6, the “Wheat plant response rating” value (wheat; [1]) was 0 and the “Wheat plant response rating” value (wheat; [2]) was 0. For the same compound, the “Plant response rating, Wheat” value (wheat; [7]) was 6, the “Plant response rating, Nutsedge” value (purple nutsedge; [3]) was 0 and the “Plant response rating, Nutsedge” value (purple nutsedge; [4]) was 0. For the same compound, the “Nutsedge plant response rating” value (purple nutsedge; [5]) was 0, the “Plant response rating, Nutsedge” value (purple nutsedge; [6]) was 6 and the “Nutsedge plant response rating” value (purple nutsedge; [1]) was 0. The “Nutsedge plant response rating” value (purple nutsedge; [2]) was 0, the “Plant response rating, Nutsedge” value (purple nutsedge; [7]) was 4 and the “Plant response rating, Rice (0 to 10 scale, 0 is no effect, 10 is complete control)” value (rice; [8]) was 0. For the same compound, the “Rice plant response rating (0 to 10 scale, 0 is no effect, 10 is complete control)” value (rice; [9]) was 0, the “Rice plant response rating” value (rice; [10]) was 0 and the “Rice plant response rating” value (rice; [11]) was 0. The “Plant response rating, Rape” value (rape; [3]) was 0, the “Plant response rating, Rape” value (rape; [4]) was 0 and the “Rape plant response rating” value (rape; [5]) was 1. The “Plant response rating, Rape” value (rape; [6]) was 3, the “Rape plant response rating” value (rape; [1]) was 0 and the “Rape plant response rating” value (rape; [2]) was 0. For the same compound, the “Plant response rating, Rape” value (rape; [7]) was 10, the “Plant response rating, Velvetleaf” value (velvetleaf; [3]) was 3 and the “Plant response rating, Velvetleaf” value (velvetleaf; [4]) was 3. For the same compound, the “Velvetleaf plant response rating” value (velvetleaf; [5]) was 7, the “Plant response rating, Velvetleaf” value (velvetleaf; [6]) was 8 and the “Velvetleaf plant response rating” value (velvetleaf; [1]) was 7. For the same compound, the “Velvetleaf plant response rating” value (velvetleaf; [2]) was 8, the “Plant response rating, Velvetleaf” value (velvetleaf; [7]) was 9 and the “Plant response rating, Cocklebur” value (cocklebur; [3]) was 0. For the same compound, the “Plant response rating, Cocklebur” value (cocklebur; [4]) was 1, the “Cocklebur plant response rating” value (cocklebur; [5]) was 2 and the “Plant response rating, Cocklebur” value (cocklebur; [6]) was 3. For the same compound, the “Cocklebur plant response rating” value (cocklebur; [1]) was 0, the “Cocklebur plant response rating” value (cocklebur; [2]) was 0 and the “Cocklebur plant response rating (0 to 10 scale)” value (cocklebur; Preemergence, Rate 250 g/ha) was 0. The “Plant response rating, Cocklebur” value (cocklebur; [7]) was 3, the “Plant response rating, Ducksalad (0 to 10 scale, 0 is no effect, 10 is complete control)” value (duck salad; [8]) was 0 and the “Ducksalad plant response rating (0 to 10 scale, 0 is no effect, 10 is complete control)” value (duck salad; [9]) was 0. For the same compound, the “Ducksalad plant response rating” value (duck salad; [10]) was 0, the “Ducksalad plant response rating” value (duck salad; [11]) was 0 and the “Plant response rating, Blackgrass” value (blackgrass; [3]) was 5. For the same compound, the “Plant response rating, Blackgrass” value (blackgrass; [4]) was 8, the “Blackgrass plant response rating” value (blackgrass; [5]) was 8 and the “Plant response rating, Blackgrass” value (blackgrass; [6]) was 8. The “Blackgrass plant response rating” value (blackgrass; [1]) was 7, the “Blackgrass plant response rating” value (blackgrass; [2]) was 8 and the “Blackgrass plant response rating (0 to 10 scale)” value (blackgrass; Preemergence, Rate 250 g/ha) was 9. The “Blackgrass plant response rating” value (blackgrass; [7]) was 10, the “Plant response rating, Corn” value (corn; [3]) was 0 and the “Plant response rating, Corn” value (corn; [4]) was 0. For the same compound, the “Corn plant response rating” value (corn; [5]) was 2, the “Plant response rating, Corn” value (corn; [6]) was 7 and the “Corn plant response rating” value (corn; [1]) was 2. The “Corn plant response rating” value (corn; [2]) was 2, the “Corn plant response rating (0 to 10 scale)” value (corn; Preemergence, Rate 250 g/ha) was 6 and the “Plant response rating, Corn” value (corn; [7]) was 9. For the same compound, the “Plant response rating, B. signalgrass” value (surinam grass; [3]) was 0, the “Plant response rating, B. signalgrass” value (surinam grass; [4]) was 1 and the “B. signalgrass plant response rating” value (surinam grass; [5]) was 5. The “Plant response rating, B. signalgrass” value (surinam grass; [6]) was 8, the “B. signalgrass plant response rating” value (surinam grass; [1]) was 3 and the “B. signalgrass plant response rating” value (surinam grass; [2]) was 6. For the same compound, the “B. signalgrass plant response rating (0 to 10 scale, 0 is no effect, 10 is complete control)” value (surinam grass; Preemergence, Rate 250 g/ha) was 9 and the “B. signalgrass plant response rating” value (surinam grass; [7]) was 10.
